Test results from ChEMBL document CHEMBL1137047, “Induction of G2/M cell cycle arrest and apoptosis by a benz[f]indole-4,9-dione analog in cultured human lung (A549) cancer cells” (Bioorg Med Chem Lett, 2004).

What was measured:
Type in all cases: functional, cell-based
Settings in all cases: Homo sapiens
SNU-638 = assay: inhibitory activity against growth of cultured SNU-638 cell line
Col2 = assay: inhibitory activity against growth of cultured Col2 cell line
A549 = assay: Inhibitory activity against growth of cultured A-549 cell line

IC50 (SNU-638): 1680 nM
IC50 (A549): 630 nM
Compound: CCOC(=O)c1c2c(n(C)c1N)C(=O)c1ccccc1C2=O
IC50 (Col2): 340 nM
